Experimental data from paper PMC6952414 (Nature Communications, 2020).
Several values for one entry are separate records, joined by “and”; a condition that tells them apart may be missing. Equal entries are not always repeated. Where two headings read alike, the source gives them in different places. Positions of bridges follow the written chain, without caps; N, C: chain ends. Non-standard residues stand in square brackets, D forms with d. Chains are numbered I, II in the order given. No end group written: not given here. Ahx = NCCCCCC(=O)O

Experiments:
IAV strain PR8 [1] = assay type: cell-based, IAV H1N1 strain A/Puerto Rico/8/1934 (PR8)
PR8-HA0 = assay type: binding, IAV H1N1 strain A/Puerto Rico/8/1934 (PR8)
HA1/HA2 = assay type: binding, IAV H1N1 strain A/Puerto Rico/8/1934 (PR8)
IAV strain PR8 [2] = system: IAV strain PR8
IAV strain PR8 [3] = assay type: cell-based, IAV H1N1 strain A/Puerto Rico/8/1934 (PR8); remark: listed apart in the source
[4] = system: IAV particles (strain PR8); assay type: biochemical, IAV H1N1 strain A/Puerto Rico/8/1934 (PR8)
IAV strain PR8 [5] = assay type: cell-based, IAV H1N1 strain A/Puerto Rico/8/1934 (PR8); remark: listed apart in the source
[6] = system: recombinant HA / α2-6sialyllactose-PAA; assay type: binding, IAV H1N1 strain A/Puerto Rico/8/1934 (PR8)
IAV strain PR8 [7] = assay type: cell-based, IAV H1N1 strain A/Puerto Rico/8/1934 (PR8); remark: listed apart in the source
HA [8] = assay type: biochemical, IAV H1N1 strain A/Puerto Rico/8/1934 (PR8)
PR8-HA1/HA2 = assay type: binding, IAV H1N1 strain A/Puerto Rico/8/1934 (PR8)
LC3-II = assay type: cell-based, canine
HA [9] = assay type: cell-based, IAV H1N1 strain A/Puerto Rico/8/1934 (PR8)
MDCK cells [10] = system: MDCK cells
IAV strain PR8 [11] = assay type: cell-based, IAV H1N1 strain A/Puerto Rico/8/1934 (PR8); remark: listed apart in the source
IAV strain PR8 [12] = system: IAV strain PR8; remark: listed apart in the source
IAV strain PR8 [13] = assay type: cell-based, IAV H1N1 strain A/Puerto Rico/8/1934 (PR8); remark: listed apart in the source
virus NP mRNA = assay type: cell-based, IAV H1N1 strain A/Puerto Rico/8/1934 (PR8)
IAV strain PR8 [14] = assay type: cell-based, IAV H1N1 strain A/Puerto Rico/8/1934 (PR8); remark: listed apart in the source
IAV strain PR8 [15] = assay type: cell-based, IAV H1N1 strain A/Puerto Rico/8/1934 (PR8); remark: listed apart in the source
[16] = system: recombinant HA derived from H5N1 A/chicken/Yamaguchi/7/2004 strain; assay type: binding, Influenza A virus H5N1
IAV strain PR8 [17] = assay type: cell-based, IAV H1N1 strain A/Puerto Rico/8/1934 (PR8); remark: listed apart in the source
cell surface HA = assay type: cell-based, IAV H1N1 strain A/Puerto Rico/8/1934 (PR8)
[18] = target: immobilized recombinant HA (Influenza A virus, UniProt P03452); assay type: binding, IAV H1N1 strain A/Puerto Rico/8/1934 (PR8)
IAV strain PR8 [19] = assay type: cell-based, IAV H1N1 strain A/Puerto Rico/8/1934 (PR8); remark: listed apart in the source
IAV strain PR8 [20] = assay: microbe, parasite or virus in culture; conditions: Influenza A virus, PR8, MDCK, read-out: EC50 (μM), IAV cytopathicity
IAV strain PR8 [21] = system: IAV strain PR8; design: species or system BALB/c mice; conditions: mouse, in vivo
MDCK cells [22] = conditions: 5 mM for 16 h

immobilized recombinant HA, sequence (P03452 18-565 limits assumed): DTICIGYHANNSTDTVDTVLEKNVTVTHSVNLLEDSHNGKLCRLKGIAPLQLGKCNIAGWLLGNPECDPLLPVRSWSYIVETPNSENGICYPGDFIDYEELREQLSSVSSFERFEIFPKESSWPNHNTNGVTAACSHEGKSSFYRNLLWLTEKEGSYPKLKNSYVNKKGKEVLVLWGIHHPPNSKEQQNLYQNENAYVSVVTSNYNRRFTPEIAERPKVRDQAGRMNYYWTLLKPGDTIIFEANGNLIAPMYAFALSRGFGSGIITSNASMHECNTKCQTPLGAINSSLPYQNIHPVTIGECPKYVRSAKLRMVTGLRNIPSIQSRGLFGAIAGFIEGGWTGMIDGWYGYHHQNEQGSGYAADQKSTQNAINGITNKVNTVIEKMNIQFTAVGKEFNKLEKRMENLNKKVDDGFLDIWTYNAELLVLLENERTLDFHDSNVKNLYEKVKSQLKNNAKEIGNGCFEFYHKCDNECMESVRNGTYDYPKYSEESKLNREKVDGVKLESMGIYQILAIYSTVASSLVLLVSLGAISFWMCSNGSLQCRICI

`C[C@@H]1COCCN1c1cc(=O)n2c(n1)N(Cc1cncc(Cl)c1)[C@H](C(F)(F)F)CC2` [SAR405] was tested, and the “effect on the dose-dependent anti-viral activity of PVF-tet (in words)” value (IAV strain PR8 [1]) was “suppressed the dose-dependent anti-viral activity of PVF-tet”.
fetuin was tested, and the “binding to non-infectious IAV particles with HA0 (in words)” value (“binding to non-infectious IAV particles” below) (PR8-HA0) was “exhibited much more binding”, the “effect of proteolytic cleavage of recombinant HA into HA1/HA2 on binding (in words)” value (HA1/HA2) was “also reduced by the cleavage of HA” and the “inhibition of IAV cytopathicity (in words)” value (IAV strain PR8 [2]) was “showed no inhibitory effect at all”. The “inhibition of IAV cytopathicity at low MOI (in words)” value (IAV strain PR8 [3]) was “had the greatest inhibitory effect”, the “inhibition of IAV-induced hemagglutination (in words)” value [4] was “efficiently inhibited the activity” and the “Virus propagation (fold increase)” value (IAV strain PR8 [5]) was 350.0 fold increase and 466.7 fold increase and 483.3 fold increase.
In the case of “I: MARRPVNHFA[Ahx]KK-NH2 / II: MARRPVNHFA[Ahx]K / III: MARRPVNHFA[Ahx] / IV: MARRPVNHFA[Ahx] (amide I:12-IV:C, I:13-II:C, II:12-III:C) [PVF-tet]”, the “binding to non-infectious IAV particles” value (PR8-HA0) is reported as “did bind with remarkable efficacy to non-infectious IAV particles with HA0”, the “effect of proteolytic cleavage of recombinant HA into HA1/HA2 on binding (in words)” value (HA1/HA2) is reported as “reduced the binding of PVF-tet to HA” and the “inhibition of the interaction between HA and α2,6-sialyllactose polymer (in words)” value [6] is reported as “also efficiently inhibited the binding of HA to α2-6 sialyllactose-polymer”. The “Cell viabilitiy(%)” value (IAV strain PR8 [7]) was 136.2% and 97.5% and 109.1% and 71.8% and 88.5% and 71.7%, the “anti-IAV activity in the ABCA3-knockout clone (in words)” value (IAV strain PR8 [7]) was “retained its anti-IAV activity” and the EC50 (IAV strain PR8 [2]; 24 h) was 1400 nM. For the same compound, the “formation of highly clustered HA (in words)” value (HA [8]) was “induced the formation of highly clustered HA”, the “binding to infectious IAV particles with HA1/HA2 (in words)” value (PR8-HA1/HA2) was “did not bind to infectious IAV particles with HA1/HA2” and the “formation of LC3-II (in words)” value (LC3-II) was “further enhanced the formation of LC3-II”. For the same compound, the “amount of newly synthesized HA in infected cells (in words)” value (HA [9]) was “accumulated in a time-dependent manner”, the “effect of FBS on incorporation into cells (in words)” value (MDCK cells [10]) was “enhanced by the presence of fetal bovine serum (FBS)” and the “incorporation into MDCK cells (in words)” value (MDCK cells [10]) was “can be incorporated into MDCK cells at 37 °C”. The “NP-positive cells (%)” value (IAV strain PR8 [11]) was 51.6% and 50.5% and 44.6% and 50.0%, the “virus entry into target cells, NP-positive cells (in words)” value (IAV strain PR8 [11]) was “did not inhibit virus entry into target cells” and the “inhibition of IAV cytopathicity in Caco-2 cells (in words)” value (IAV strain PR8 [12]) was “equally inhibited cytopathicity induced by both low and high MOI infection”. For the same compound, the cell viability (IAV strain PR8 [13]) was 103 ± 9% and 85 ± 9%, the “inhibition of cytopathicity when treated from 2 h post-infection for limited periods (in words)” value (IAV strain PR8 [13]) was “still efficiently inhibited the cytotoxicity” and the “NP mRNA synthesis (in words)” value (virus NP mRNA) was “did not affect”. For the same compound, the “fusion process monitored by fluorescently labeled virus (in words)” value (IAV strain PR8 [14]) was “did not affect the fusion process”, the “anti-viral activity in ULK1-knockout clones (in words)” value (IAV strain PR8 [15]) was “significantly suppressed in the clones” and the “binding to recombinant H5N1 HA (in words)” value [16] was “bound”. The “time of administration after initial IAV infection at which cytopathicity is still inhibited” value (IAV strain PR8 [17]) was “up to 9 h”, the “amount of HA on the plasma membrane (in words)” value (cell surface HA) was “marked reduction of the amount of HA that was present on the plasma membrane” and the Rmax [18] was 1004 RU. The “binding to HA (in words)” value [18] was “bound to HA with high affinity”, the “inhibition of IAV-induced hemagglutination (in words)” value [4] was “did not inhibit IAV-induced hemagglutination” and the “fold increase of virus titer over the initial virus titer” value (IAV strain PR8 [5]) was “about 50 fold”. For the same compound, the “inhibition of IAV propagation (in words)” value (IAV strain PR8 [5]) was “inhibited IAV propagation to a greater degree than fetuin” and the “anti-viral activity in PIK3C3-knockout clones (in words)” value (IAV strain PR8 [19]) was “significantly suppressed in the clones”.
In the case of RRRVNHH [RVH-tet], the “inhibition of IAV cytopathicity (in words)” value (IAV strain PR8 [2]) is reported as “efficiently inhibited the cytopathicity in a dose-dependent manner”.
In the case of `CC(=O)N[C@H]1[C@H]([C@H](O)[C@H](O)CO)OC(C(=O)O)=C[C@@H]1N=C(N)N` [Zanamivir, zanamivir], the EC50 (IAV strain PR8 [20]) is reported as 0.2 µM, the “body weight loss (in words)” value (IAV strain PR8 [21]) is reported as “attenuated the weight loss” and the “mice rescued from mortality” value (IAV strain PR8 [21]) is reported as 100%.
For 3-MA, the “cell viability of uninfected MDCK cells (in words)” value (MDCK cells [22]) was “did not affect the cell viability”.
For RRPVNHD [PVD-tet], the “inhibition of IAV cytopathicity (in words)” value (IAV strain PR8 [2]) was “failed to inhibit IAV cytopathicity” and the “incorporation into MDCK cells (in words)” value (MDCK cells [10]) was “less cell-penetrating”.
In the case of `CO/C1=C\C(C)=C\[C@@H](C)[C@@H](O)[C@@H](C)C/C(C)=C/C=C/[C@H](OC)[C@@H]([C@@H](C)[C@@H](O)[C@H](C)[C@@]2(O)C[C@@H](O)[C@H](C)[C@@H](C(C)C)O2)OC1=O` [bafilomycin A1], the “NP-positive cells (%)” value (IAV strain PR8 [11]) is reported as 5.3% and 2.2% and 2.8% and 3.8%, the “virus entry into target cells, NP-positive cells (in words)” value (IAV strain PR8 [11]) is reported as “completely inhibited virus entry into cells” and the “NP mRNA synthesis (in words)” value (virus NP mRNA) is reported as “efficiently inhibited both events”. For the same compound, the “Relative mRNA expression (fold increase)” value (virus NP mRNA) was 0.134 fold increase and 0.131 fold increase and 0.156 fold increase and 0.244 fold increase and 0.237 fold increase and 0.138 fold increase and 0.155 fold increase, the “fusion process monitored by fluorescently labeled virus (in words)” value (IAV strain PR8 [14]) was “efficiently inhibited both events” and the “time of administration after initial IAV infection at which cytopathicity is still inhibited” value (IAV strain PR8 [17]) was under 5 h.
`CSCC[C@H](N)C(=O)N[C@@H](C)C(=O)N[C@@H](C)C(=O)NCCCCCC(=O)NCCCC[C@H](NC(=O)CCCCCNC(=O)[C@H](C)NC(=O)[C@H](C)NC(=O)[C@@H](N)CCSC)C(=O)NCCCC[C@H](NC(=O)[C@H](CCCCNC(=O)CCCCCNC(=O)[C@H](C)NC(=O)[C@H](C)NC(=O)[C@@H](N)CCSC)NC(=O)CCCCCNC(=O)[C@H](C)NC(=O)[C@H](C)NC(=O)[C@@H](N)CCSC)C(=O)O` [MA-tet] was tested, and the “inhibition of IAV cytopathicity (in words)” value (IAV strain PR8 [2]) was “did not inhibit the cytopathicity”.
In the case of asialofetuin [reference compound], the “binding to non-infectious IAV particles” value (PR8-HA0) is reported as “exhibited no binding” and the “binding to infectious IAV particles with HA1/HA2 (in words)” value (PR8-HA1/HA2) is reported as “exhibited no binding”.
